From US11667602B2, “Compounds and their use” (AstraZeneca AB, priority 2020, dated 2023)

Target: T1, human RXFP1 (Homo sapiens, UniProt Q9HBX9)
T1 sequence (Q9HBX9 1-757): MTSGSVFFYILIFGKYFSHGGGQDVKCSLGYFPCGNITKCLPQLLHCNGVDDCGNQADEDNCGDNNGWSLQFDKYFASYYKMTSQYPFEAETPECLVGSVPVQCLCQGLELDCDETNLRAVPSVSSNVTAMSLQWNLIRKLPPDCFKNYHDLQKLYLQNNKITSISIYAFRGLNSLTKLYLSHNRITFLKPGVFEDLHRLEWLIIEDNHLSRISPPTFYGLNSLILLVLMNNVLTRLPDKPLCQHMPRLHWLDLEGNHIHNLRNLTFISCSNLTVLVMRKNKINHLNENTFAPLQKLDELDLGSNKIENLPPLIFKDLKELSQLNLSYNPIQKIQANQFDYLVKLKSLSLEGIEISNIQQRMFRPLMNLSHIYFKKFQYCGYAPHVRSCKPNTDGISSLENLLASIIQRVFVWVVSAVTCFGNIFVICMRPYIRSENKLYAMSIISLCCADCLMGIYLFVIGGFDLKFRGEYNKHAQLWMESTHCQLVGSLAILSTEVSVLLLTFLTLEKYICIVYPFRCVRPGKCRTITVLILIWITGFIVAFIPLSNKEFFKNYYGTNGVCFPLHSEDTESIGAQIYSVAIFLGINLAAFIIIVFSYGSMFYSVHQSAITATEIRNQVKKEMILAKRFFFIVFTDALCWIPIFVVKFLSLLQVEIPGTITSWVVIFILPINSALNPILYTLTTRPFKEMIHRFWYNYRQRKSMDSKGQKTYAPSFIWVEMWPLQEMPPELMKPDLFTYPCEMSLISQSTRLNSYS
Experiment: RXFP1 Hu cAMP (Test A)
Assay type: cell-based
Design: expressed in transfected cells; host or cells: Jump-In T-REx CHO-K1 cells (ThermoFisher), induced with 10 ng/ml doxycycline for 24 h
Settings: RXFP1 Hu cAMP; for EC50: read-out: Test A EC50
Method in brief: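 Doxycycline-induced (10 ng/ml, 24 h) CHO-K1 cells stably expressing human RXFP1; cAMP read by competitive HTRF after 2 h at room temperature, with 0.5 mM IBMX final.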

Compound	Test A Sinf [%]	EC50 [nM]
COc1cc(F)c(-c2cccc(C(=O)O)n2)cc1C(=O)N[C@H]1[C@@H](C(=O)Nc2cccc(S(=O)(=O)C(F)(F)F)c2)[C@@H]2C=C[C@H]1C2 (racemic) [Example 279]	–	> 40000
COc1cc(F)c(O[C@H]2CC[C@@](C)(C(=O)O)CC2)cc1C(=O)N[C@@H]1COC[C@@H]1C(=O)NCC1(C)CCC1 (racemic) [Example 350]	97	3900
(1R,4s)-4-(2-Fluoro-4-methoxy-5-(((3S*,4R*)-4-(neopentylcarbamoyl)tetrahydrofuran-3-yl)carbamoyl)phenoxy)-1-(hydroxymethyl)cyclohexane-1-carboxylic acid [Example 579]	120	–
COc1cc(F)c(-c2nc(C(=O)O)co2)cc1C(=O)N[C@H]1[C@@H](C(=O)Nc2cccc(S(=O)(=O)C(F)(F)F)c2)[C@@H]2C=C[C@H]1C2 (racemic) [Example 275, rac-2-(2-Fluoro-4-methoxy-5-(((1R,2R,3S,4S)-3-((3-((trifluoromethyl)sulfonyl)phenyl)carbamoyl)bicyclo[2.2.1]hept-5-en-2-yl)carbamoyl)phenyl)oxazole-4-carboxylic acid]	83	11000
COc1cc(F)c(O[C@H]2CC[C@@](CO)(C(=O)O)CC2)cc1C(=O)NC1CC(OC)CC1C(=O)NCC(C)(C)C (single isomer, unassigned) [Example 548, (1R,4s)-4-(2-Fluoro-4-methoxy-5-(((1S*,2R*,4R*)-4-methoxy-2-(neopentylcarbamoyl)cyclopentyl)carbamoyl)phenoxy)-1-(hydroxymethyl)cyclohexane-1-carboxylic acid]	117	21000
COc1cc(F)c(-c2ccc(C(=O)O)cc2)cc1C(=O)N[C@@H]1CCC[C@@H]1C(=O)Nc1cccc(S(=O)(=O)C(F)(F)F)c1 (racemic) [Example 299]	81	–

More lines, in order of falling EC50, values ahead:

Test A Sinf [%]	EC50 [nM]	Compound
118	540	COc1cc(F)c(O[C@H]2CC[C@@](O)(C(=O)O)CC2)cc1C(=O)N[C@@H]1[C@H]2CC[C@H](C2)[C@@H]1C(=O)NCC1(C)CCC1 [Example 507, (1R,4r)-4-(2-Fluoro-4-methoxy-5-(((1S,2R,3S,4R)-3-(((1-methylcyclobutyl)methyl)carbamoyl)bicyclo[2.2.1]heptan-2-yl)carbamoyl)phenoxy)-1-hydroxycyclohexane-1-carboxylic acid]
91	320	COc1cc(F)c(O[C@H]2CC[C@@H](NS(C)(=O)=O)CC2)cc1C(=O)N[C@@H]1[C@H]2CC[C@H](C2)[C@@H]1C(=O)Nc1cccc(S(=O)(=O)C(F)(F)F)c1 [Example 459, (1R,2S,3R,4S)-3-(4-Fluoro-2-methoxy-5-(((1s,4S)-4-(methylsulfonamido)cyclohexyl)oxy)benzamido)-N-(3-((trifluoromethyl)sulfonyl)phenyl)bicyclo[2.2.1]heptane-2-carboxamide]
99	260	CC1(CNC(=O)[C@H]2[C@@H]3CC[C@@H](C3)[C@H]2NC(=O)c2cc(O[C@H]3CC[C@@](C)(C(=O)O)CC3)cc3cccnc23)CCC1 [Example 407]
90	180	COc1cc(F)c(-c2ccc(C(=O)O)cc2)cc1C(=O)N[C@H]1[C@@H](C(=O)Nc2ccc(F)c(C(F)(F)F)c2)[C@@H]2C=C[C@H]1C2 (racemic) [Example 307, rac-2′-Fluoro-5′-(((1R,2R,3S,4S)-3-((4-fluoro-3-(trifluoromethyl)phenyl)carbamoyl)bicyclo[2.2.1]hept-5-en-2-yl)carbamoyl)-4′-methoxy-[1,1′-biphenyl]-4-carboxylic acid]
93	100	COc1cc(F)c(O[C@H]2CC[C@@](C)(C(=O)O)CC2)cc1C(=O)N[C@@H]1[C@H]2CC[C@H](C2)[C@@H]1C(=O)NCC(F)(F)C(F)(F)F [Example 618]
99	43	COc1cc(C#N)c(O[C@H]2CC[C@@](C)(C(=O)O)CC2)cc1C(=O)N[C@@H]1[C@H]2CC[C@H](C2)[C@@H]1C(=O)NC[C@H](C)c1ccccc1 [Example 118]
